Data from patent US20060142291A1, “Use of formaldehyde and formaldehyde-releasing compounds in a composition for controlling mycobacteria” (priority 2004, published 2006).

What was measured:
Assay in all cases: Activity of bactericidal solutions against mycobacteria (MIC, 7H9 liquid medium, turbidity and streaking on 7H10 agar)
Type in all cases: cell-based
M. terrae ATCC 15755 = conditions: ATCC 15755, 37° C., 3 weeks incubation, % by weight
M. chelonae ATCC 35725 = conditions: for Activity at MIC (%) M. chelonae (28° C.): ATCC 35725, 28° C., 3 weeks incubation, % by weight
M. chelonae ATCC 19236 = conditions: ATCC 19236, 37° C., 3 weeks incubation, % by weight
[1] = test system: M. immunogenum ATCC 700505; conditions: 3 weeks incubation, % by weight; for Activity at MIC (%) M. immunogenum (28° C.): ATCC 700505, 28° C.; for Activity at MIC (%) M. immunogenum (37° C.): ATCC 700505, 37° C.

With `OCCN1CN(CCO)CN(CCO)C1` [Comparison 1, 2,2′,2″-(hexahydro-1,3,5-triazine-1,3,5-triyl)triethanol] the “Activity at MIC (%) M. terrae (37° C.)” value (M. terrae ATCC 15755) was 0.3%, the “Activity at MIC (%) M. chelonae (28° C.)” value (M. chelonae ATCC 35725) was 0.3% and the “usage concentration active against M. chelonae” value (M. chelonae ATCC 35725; strain and temperature not stated) was 0.3 % by weight. The “Activity at MIC (%) M. chelonae (37° C.)” value (M. chelonae ATCC 19236) was 0.3%, the “Activity at MIC (%) M. immunogenum (28° C.)” value [1] was “≦0.075%” and the “Activity at MIC (%) M. immunogenum (37° C.)” value [1] was “≦0.075%”.
In the case of `CCCCCCCCn1sccc1=O` [Comparison 2, 2-octyl-3(2H)-isothiazol-3-one], the “Activity at MIC (%) M. terrae (37° C.)” value (M. terrae ATCC 15755) is reported as greater than 0.3%, the “Activity at MIC (%) M. chelonae (28° C.)” value (M. chelonae ATCC 35725) is reported as greater than 0.3% and the “Activity at MIC (%) M. chelonae (37° C.)” value (M. chelonae ATCC 19236) is reported as greater than 0.3%. For the same compound, the “Activity at MIC (%) M. immunogenum (28° C.)” value [1] was greater than 0.3% and the “Activity at MIC (%) M. immunogenum (37° C.)” value [1] was greater than 0.3%.
